Test system: MCP-1
Assay: MCP-1 ELISA in VTA, amygdala and hypothalamus of female and male P rats
Format: in vivo, rat
Settings: 15 mg/kg IP
Experimental: (Two-way ANOVA: F (1,28)=20.92, P<0.0001), and Hypothalamus [female (27%) and male (32%)] (Two-way ANOVA: F (1,28)=31.55, P<0.0001).
ELISA. Brain tissue micropunches were lysed with Cellyte MT and the extracts were assayed for protein content by the BCA procedure (Pierce) and for MCP-1 using the rat MCP-1 ELISA kit (Raybiotech—ERC-MCP-1-CL; Norcross, Ga., USA) or for fracktalkine using the rat fractalkine ELISA kit (Raybiotech—ERC-CX3CL1-CL; Norcross, Ga., USA) as per manufacturer's instructions.
To determine if the effects of 3α,5α-THP on MCP-1 were selective for P rat NAc, the effects of 3α,5α-THP administration in VTA, Amygdala and Hypothalamus of both female and male P rats was examined.

CC(=O)[C@H]1CC[C@H]2[C@@H]3CC[C@H]4C[C@H](O)CC[C@]4(C)[C@H]3CC[C@]12C [3α,5α-THP, (3α,5α)3-hydroxypregnan-20-one]
reduction of MCP-1 levels in Amygdala (female P rats): 47% | reduction of MCP-1 levels in Hypothalamus (female P rats): 27% | reduction of MCP-1 levels in VTA (female P rats): 27% | reduction of MCP-1 levels in Amygdala (male P rats): 58% | reduction of MCP-1 levels in Hypothalamus (male P rats): 32% | reduction of MCP-1 levels in VTA (male P rats): 21%

From US20210205329A1 (The University of North Carolina at Chapel Hill, priority 2018, published 2021)
